According to patent publication US20220193084A1, “INHIBITORS OF EZH2 AND METHODS OF USE THEREOF” (Epizyme, Inc., priority 2015, published 2022):

Experiments:
Oral bioavailability = details: in vivo
[1] = human, in vivo
Method: (§1) Table 10 describes a Phase 1 clinical trial design (sponsor protocol no.: E7438-G000-001, ClinicalTrials.gov identifier: NCT01897571). The study population included subjects with relapsed or refractory solid tumors or B-cell lymphoma. Subjects received a 3+3 dose escalation in expansion cohorts receiving 800 mg BID and 1600 mg BID, respectively, or a cohort for ascertaining the effect of food on dosing at 400 mg BID. The primary endpoint was a determination of recommended phase II dose (RP2D)/maximum tolerated dose (MTD). Secondary endpoints included safety, pharmacokinetics (PK), pharmacodynamics (PD) and tumor response, assessed every 8 wks.

relapsed refractory NHL = assay: Phase 2 NHL trial: best response by molecular variant; type: in vivo, human
Method: Archive and cell-free tumor DNA collected from relapsed refractory NHL patients phase I and II trials, were tested in the NGS panel as described in Examples 1 and 2. The content of the panel included molecular variants occurring in NHL at ≥5% frequency. (Tables 15 and 17-19, FIGS. 19A-22C). […] Through correction of the background error by molecular bar coding the NHL specific plasma select panel was able to accurately detect mutations down to 0.1% allelic frequency (FIG. 13A and FIG. 13B). Translocations of ALK were detected in a cell-free DNA validation test set with samples from the phase I patients at a tumor purity of as low as 0.1% (FIG. 14). Sequencing of phase 1 NHL patients utilizing the 62 gene NHL NGS panel was completed for 10 archive tumor samples and 15 ctDNA samples (Table 15, FIG. 19A and FIG. 19B). In addition, microsatellite instability was monitored through the analysis of 5 distinct markers (BAT-25, BAT-26, MONO-27, NR-21 and NR-24), leading to one patient in the phase I trial being identified as microsatellite unstable based on the five tested markers (Table 15 and FIG. 19A and FIG. 19B, columns A16 and C16). Sequencing and an initial analysis of samples from patients in a phase 2 trial was completed with 58 archive tumor and 72 ctDNA baseline patient samples, wherein 48 of the archive tumor patients and 68 of the ctDNA patients were sequenced with reported response data.

[2] = tested on: relapsed or refractory solid tumors or B-cell lymphoma; assay: Phase 1 clinical trial (NCT01897571): tumor response; type: in vivo, human
Method: as §1

[3] = phase 2, archive tumor, 6 patients with MYD88 (273P) mutations
[4] = phase 2, archive tumor, 9 patients with EZH2 mutations
[5] = phase 2, archive tumor, 13 patients with STAT6 mutations
[6] = phase 2, ctDNA variant allele frequencies of 0.1%, 6 patients with MYD88 (273P) mutations
[7] = phase 2, ctDNA variant allele frequencies of 0.1%, 11 patients with EZH2 mutations
[8] = phase 2, ctDNA variant allele frequencies of 0.1%, 14 patients with STAT6 mutations
[9] = phase 2, ctDNA variant allele frequencies of 0.1%, 18 patients with MYC mutations
[10] = phase 2, ctDNA variant allele frequencies of 1%, 5 patients with MYD88 (273P) mutations
[11] = phase 2, ctDNA variant allele frequencies of 1%, 8 patients with EZH2 mutations
[12] = phase 2, ctDNA variant allele frequencies of 1%, 10 patients with STAT6 mutations

## CCN(c1cc(-c2ccc(CN3CCOCC3)cc2)cc(C(=O)NCc2c(C)cc(C)[nH]c2=O)c1C)C1CCOCC1 [tazemetostat]
Oral bioavailability
  oral bioavailability: orally bioavailable
[1]
  Abdominal pain, All Events, All Grades: 4
  Abdominal pain, All Events, Grade ≥3: 1
  Abdominal pain, All Treatment-Related, All Grades: 1
  Abdominal pain, All Treatment-Related, Grade ≥3: 0
  Anemia, All Events, All Grades: 5
  Anemia, All Events, Grade ≥3: 0
  Anemia, All Treatment-Related, All Grades: 3
  Anemia, All Treatment-Related, Grade ≥3: 0
  Anxiety, All Events, All Grades: 3
  Anxiety, All Events, Grade ≥3: 0
  Anxiety, All Treatment-Related, All Grades: 1
  Anxiety, All Treatment-Related, Grade ≥3: 0
  Asthenia, All Events, All Grades: 23
  Asthenia, All Events, Grade ≥3: 0
  Asthenia, All Treatment-Related, All Grades: 13
  Asthenia, All Treatment-Related, Grade ≥3: 0
  Constipation, All Events, All Grades: 7
  Constipation, All Events, Grade ≥3: 0
  Constipation, All Treatment-Related, All Grades: 2
  Constipation, All Treatment-Related, Grade ≥3: 0
  Decreased appetite, All Events, All Grades: 9
  Decreased appetite, All Events, Grade ≥3: 1
  Decreased appetite, All Treatment-Related, All Grades: 4
  Decreased appetite, All Treatment-Related, Grade ≥3: 0
  Depression, All Events, All Grades: 3
  Depression, All Events, Grade ≥3: 2
  Depression, All Treatment-Related, All Grades: 1
  Depression, All Treatment-Related, Grade ≥3: 0
  Diarrhea, All Events, All Grades: 6
  Diarrhea, All Events, Grade ≥3: 0
  Diarrhea, All Treatment-Related, All Grades: 4
  Diarrhea, All Treatment-Related, Grade ≥3: 0
  Dry skin, All Events, All Grades: 5
  Dry skin, All Events, Grade ≥3: 0
  Dry skin, All Treatment-Related, All Grades: 4
  Dry skin, All Treatment-Related, Grade ≥3: 0
  Dysgeusia, All Events, All Grades: 5
  Dysgeusia, All Events, Grade ≥3: 0
  Dysgeusia, All Treatment-Related, All Grades: 5
  Dysgeusia, All Treatment-Related, Grade ≥3: 0
  Dyspnea, All Events, All Grades: 5
  Dyspnea, All Events, Grade ≥3: 0
  Dyspnea, All Treatment-Related, All Grades: 0
  Dyspnea, All Treatment-Related, Grade ≥3: 0
  Hepatocellular injury, All Events, All Grades: 2
  Hepatocellular injury, All Events, Grade ≥3: 1
  Hepatocellular injury, All Treatment-Related, All Grades: 1
  Hepatocellular injury, All Treatment-Related, Grade ≥3: 1
  Hypertension, All Events, All Grades: 3
  Hypertension, All Events, Grade ≥3: 1
  Hypertension, All Treatment-Related, All Grades: 2
  Hypertension, All Treatment-Related, Grade ≥3: 1
  Hypophosphatemia, All Events, All Grades: 4
  Hypophosphatemia, All Events, Grade ≥3: 0
  Hypophosphatemia, All Treatment-Related, All Grades: 1
  Hypophosphatemia, All Treatment-Related, Grade ≥3: 0
  Insomnia, All Events, All Grades: 3
  Insomnia, All Events, Grade ≥3: 0
  Insomnia, All Treatment-Related, All Grades: 0
  Insomnia, All Treatment-Related, Grade ≥3: 0
  Muscle spasms, All Events, All Grades: 5
  Muscle spasms, All Events, Grade ≥3: 0
  Muscle spasms, All Treatment-Related, All Grades: 3
  Muscle spasms, All Treatment-Related, Grade ≥3: 0
  Nausea, All Events, All Grades: 8
  Nausea, All Events, Grade ≥3: 0
  Nausea, All Treatment-Related, All Grades: 8
  Nausea, All Treatment-Related, Grade ≥3: 0
  Neutropenia, All Events, All Grades: 3
  Neutropenia, All Events, Grade ≥3: 1
  Neutropenia, All Treatment-Related, All Grades: 3
  Neutropenia, All Treatment-Related, Grade ≥3: 1
  Night sweats, All Events, All Grades: 3
  Night sweats, All Events, Grade ≥3: 0
  Night sweats, All Treatment-Related, All Grades: 3
  Night sweats, All Treatment-Related, Grade ≥3: 0
  Peripheral edema, All Events, All Grades: 3
  Peripheral edema, All Events, Grade ≥3: 0
  Peripheral edema, All Treatment-Related, All Grades: 2
  Peripheral edema, All Treatment-Related, Grade ≥3: 0
  Safety profile as monotherapy: acceptable
  Thrombocytopenia, All Events, All Grades: 8
  Thrombocytopenia, All Events, Grade ≥3: 2
  Thrombocytopenia, All Treatment-Related, All Grades: 7
  Thrombocytopenia, All Treatment-Related, Grade ≥3: 1
  Vomiting, All Events, All Grades: 6
  Vomiting, All Events, Grade ≥3: 0
  Vomiting, All Treatment-Related, All Grades: 5
  Vomiting, All Treatment-Related, Grade ≥3: 0
Relapsed refractory NHL; Sample ID 10012004, STAT6 419D > G, vaf 42%, DLBCL GCB EZH2 Wild-type
  Response: Progressive Disease
Relapsed refractory NHL; Sample ID 10032007, STAT6 419D > G, vaf 36%, FL EZH2 Wild-type
  Response: Partial Response
Relapsed refractory NHL; Sample ID 10042005, STAT6 419D > G, vaf 19%, FL EZH2 Wild-type
  Response: Partial Response
Relapsed refractory NHL; Sample ID 10052001, STAT6 419D > G, vaf 24%, FL EZH2 Mutant
  Response: Partial Response
Relapsed refractory NHL; Sample ID 10062002, STAT6 419D > G, vaf 29%, DLBCL GCB EZH2 Wild-type
  Response: Stable Disease
Relapsed refractory NHL; Sample ID 20012001, STAT6 286Q > R, vaf 24%, DLBCL GCB EZH2 Wild-type
  Response: Stable Disease
Relapsed refractory NHL; Sample ID 20012003, STAT6 417N > S, vaf 27%, DLBCL GCB EZH2 Wild-type
  Response: Stable Disease
Relapsed refractory NHL; Sample ID 20022001, STAT6 377E > K, vaf 33%, FL EZH2 Mutant
  Response: Partial Response
Relapsed refractory NHL; Sample ID 20022008, STAT6 371C > R, vaf 35%, FL EZH2 Wild-type
  Response: Progressive Disease
Relapsed refractory NHL; Sample ID 20042003, STAT6 419D > A, vaf 39%, DLBCL GCB EZH2 Mutant
  Response: Partial Response
Relapsed refractory NHL; Sample ID 20052004, STAT6 419D > A, vaf 30%, DLBCL GCB EZH2 Wild-type
  Response: Complete Response
Relapsed refractory NHL; Sample ID 30022001, STAT6 419D > H, vaf 42%, DLBCL GCB EZH2 Wild-type
  Response: Progressive Disease
Relapsed refractory NHL; Sample ID 50022001, STAT6 419D > Y, vaf 39%, DLBCL non-GCB
  Response: Stable Disease
Relapsed refractory NHL; phase 2, archive tumor, 2 MYC translocations
  response associated with MYC translocations: lack of response
Relapsed refractory NHL; [3]
  best response CR, number of patients: 3
  best response PD, number of patients: 1
  best response PR, number of patients: 1
Relapsed refractory NHL; phase 2, archive tumor, 7 patients with MYC mutations
  best response PD, number of patients: 5
Relapsed refractory NHL; [4]
  best response PD, number of patients: 2
  best response PR, number of patients: 4
  best response SD, number of patients: 3
Relapsed refractory NHL; [5]
  best response CR, number of patients: 1
  best response PD, number of patients: 3
  best response PR, number of patients: 5
  best response SD, number of patients: 4
Relapsed refractory NHL; phase 2, ctDNA variant allele frequencies of 0.1%, 5 MYC translocations
  response associated with MYC translocations: lack of response
Relapsed refractory NHL; [6]
  best response CR, number of patients: 2
  best response PD, number of patients: 2
  best response PR, number of patients: 1
  best response SD, number of patients: 1
Relapsed refractory NHL; [7]
  best response PD, number of patients: 3
  best response PR, number of patients: 5
  best response SD, number of patients: 2
Relapsed refractory NHL; [8]
  best response PD, number of patients: 3
  best response PR, number of patients: 5
  best response SD, number of patients: 6
Relapsed refractory NHL; [9]
  best response PD, number of patients: 9
  best response PR, number of patients: 2
  best response SD, number of patients: 3
Relapsed refractory NHL; phase 2, ctDNA variant allele frequencies of 1%, 5 MYC translocations
  response associated with MYC translocations: lack of response
Relapsed refractory NHL; phase 2, ctDNA variant allele frequencies of 1%, 5 patients with MYC mutations
  best response PD, number of patients: 3
Relapsed refractory NHL; [10]
  best response CR, number of patients: 2
  best response PD, number of patients: 2
  best response PR, number of patients: 1
Relapsed refractory NHL; [11]
  best response PD, number of patients: 3
  best response PR, number of patients: 4
  best response SD, number of patients: 1
Relapsed refractory NHL; [12]
  best response PD, number of patients: 2
  best response PR, number of patients: 4
  best response SD, number of patients: 4
[2]; both EZH2 mutant and wild type patients
  clinical responses in phase 1 clinical trial: demonstrated clinical responses
[2]; relapsed or refractory DLBCL (GCB and non-GCB), FL and MZL
  clinical activity as a monotherapy: demonstrates clinical activity
